Here are results for 2 substances from US11090355B2, “Compositions and methods for the treatment of neurodamage” (BIOINCEPT, LLC, priority 2015, dated 2021).

One series concerns EAE. Kind of series: PLP139-151 induced EAE, episodic treatment, paralysis scores. Particulars: for MCE (mean clinical score at end) / MCS (mean clinical score) / PP (mean peak paralysis score): short term.
A further series deals with PDI (Homo sapiens, UniProt P07237). Kind of series: binding to PDI, sPIF compared to scrambled PIF. The text has this: (FIG. 2). […] (FIG. 3). […] (FIG. 4). […] Thus dependent on the target Kv1.3 or IDE the mutated PIF-1 can have a target-specific effect which can also translate to diverse biological activity.
Sequence of PDI (P07237 18-508, species assumed): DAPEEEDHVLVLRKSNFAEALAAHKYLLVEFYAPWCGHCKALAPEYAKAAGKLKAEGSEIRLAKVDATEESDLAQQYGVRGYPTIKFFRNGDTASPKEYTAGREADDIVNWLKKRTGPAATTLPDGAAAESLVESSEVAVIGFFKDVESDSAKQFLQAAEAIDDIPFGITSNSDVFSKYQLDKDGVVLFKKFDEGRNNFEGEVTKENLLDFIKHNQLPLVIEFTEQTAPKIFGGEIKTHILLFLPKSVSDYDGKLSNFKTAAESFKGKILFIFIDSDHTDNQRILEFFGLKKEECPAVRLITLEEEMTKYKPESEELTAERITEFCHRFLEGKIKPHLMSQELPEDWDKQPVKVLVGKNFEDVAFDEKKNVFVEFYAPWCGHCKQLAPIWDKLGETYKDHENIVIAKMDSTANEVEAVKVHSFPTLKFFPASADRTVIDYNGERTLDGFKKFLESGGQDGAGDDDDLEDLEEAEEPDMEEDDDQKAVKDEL

Marks after values point to notes of the source that are not given here.

For the substance Glatiramer acetate [GA], the “total recovery from paraplegia (stage 4/5)” value in the series with EAE (episodic treatment) is listed as 12.5%. Also, in the series with EAE (long-term, day 50), the “mice disease free at the end of the study” value was 1/9 and the mice that died entry is “three”. For the same substance, in the series on EAE (medium term), the mice that died result is “one” and the paralysis score result is on record as “increased”. In addition, in the series on EAE (medium term, day 41), the “mice with paralysis reversed / disease free” value is on record as 1/7. In addition, the “mice free of paralysis at the end of the first remission” value with EAE (short term study) was “none”. For the same substance, in the series on EAE (Experiment 1), the “MCE (mean clinical score at end)” value was 1.3 +/− 0.4, the “MCS (mean clinical score)” value is 1.58 +/− 0.15 and the “PP (mean peak paralysis score)” value is 2.4 +/− 0.4. Moreover, in the series on EAE (Experiment 2), the “MCE (mean clinical score at end)” value was 0.8 +/− 0.2*, the “MCS (mean clinical score)” value was 1.4 +/− 0.27 and the “PP (mean peak paralysis score)” value is on record as 2.5 +/− 0.4.
For the substance “GRVDPSNKSMPKDIA (scrPIF-1 (15)) [scrambled PIF]”, the “interaction with PDI target” value in the series with PDI is recorded as “greatly reduced”.
